PubChem BioAssay AID248 (DTP/NCI, 2004)
Where “and” joins values, the source holds several entries; their conditions need not be identical. Identical values can stand only once. Toxic doses and inconclusive results are not listed. Cut-off read from the data, not from the text of the source: active = T/C of 150% or more; inactive = T/C below 125%.

Test system: L1210 leukemia ip in BDF1 mice, survival T/C
Test: NCI In Vivo Anticancer Drug Screen. Data for tumor model L1210 Leukemia (intraperitoneal) in B6D2F1 (BDF1) mice
Conditions: endpoint: mean survival time, higher = longer survival
Summary of the method: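 Tumor was transplanted into mice, which were then dosed with test compound or vehicle alone. Survival was recorded for each group, and the treated figure was expressed relative to the control figure.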

[1] = dose: 100.0 mg/kg/injection, schedule: Q01DX001 (ip), vehicle: Klucel (hydroxypropylcellulose) (HPC)
[2] = dose: 100.0 mg/kg/injection, schedule: Q01DX001 (ip), vehicle: saline
[3] = dose: 200.0 mg/kg/injection, schedule: Q01DX001 (ip), vehicle: Klucel (hydroxypropylcellulose) (HPC)
[4] = dose: 200.0 mg/kg/injection, schedule: Q01DX001 (ip), vehicle: saline
[5] = dose: 400.0 mg/kg/injection, schedule: Q01DX001 (ip), vehicle: Klucel (hydroxypropylcellulose) (HPC)
[6] = dose: 100.0 mg/kg/injection, schedule: Q04DX003 (ip), vehicle: Klucel (hydroxypropylcellulose) (HPC)
[7] = dose: 200.0 mg/kg/injection, schedule: Q04DX003 (ip), vehicle: Klucel (hydroxypropylcellulose) (HPC)
[8] = dose: 400.0 mg/kg/injection, schedule: Q04DX003 (ip), vehicle: Klucel (hydroxypropylcellulose) (HPC)
[9] = dose: 100.0 mg/kg/injection, schedule: Q01DX001 (ip), vehicle: carboxymethylcellulose (CMC)
[10] = dose: 200.0 mg/kg/injection, schedule: Q01DX001 (ip), vehicle: carboxymethylcellulose (CMC)
[11] = dose: 400.0 mg/kg/injection, schedule: Q01DX001 (ip), vehicle: carboxymethylcellulose (CMC)
[12] = dose: 100.0 mg/kg/injection, schedule: Q01DX009 (ip), vehicle: Klucel (hydroxypropylcellulose) (HPC)
[13] = dose: 200.0 mg/kg/injection, schedule: Q01DX009 (ip), vehicle: Klucel (hydroxypropylcellulose) (HPC)
[14] = dose: 400.0 mg/kg/injection, schedule: Q01DX009 (ip), vehicle: Klucel (hydroxypropylcellulose) (HPC)
[15] = dose: 100.0 mg/kg/injection, schedule: Q04DX003 (ip), vehicle: saline
[16] = dose: 200.0 mg/kg/injection, schedule: Q04DX003 (ip), vehicle: saline
[17] = dose: 400.0 mg/kg/injection, schedule: Q04DX003 (ip), vehicle: saline
[18] = dose: 100.0 mg/kg/injection, schedule: Q01DX009 (ip), vehicle: saline
[19] = dose: 200.0 mg/kg/injection, schedule: Q01DX009 (ip), vehicle: saline
[20] = dose: 400.0 mg/kg/injection, schedule: Q01DX009 (ip), vehicle: saline

Measured: T/C

CC(C(=O)O)C(N)C(=O)O (stereo unspecified)
inactive: dose: 75.0 mg/kg/injection, schedule: Q04DX003 (ip), vehicle: saline 102 % of control | [1] 88 % of control | [2] 98 % of control | dose: 150.0 mg/kg/injection, schedule: Q04DX003 (ip), vehicle: saline 102 % of control | [3] 97 % of control | [4] 96 % of control | dose: 300.0 mg/kg/injection, schedule: Q04DX003 (ip), vehicle: saline 102 % of control | [5] 92 % of control | dose: 400.0 mg/kg/injection, schedule: Q01DX001 (ip), vehicle: saline 95 % of control

SCCCCN1CCCCC1
inactive: dose: 3.0 mg/kg/injection, schedule: Q01DX001 (ip), vehicle: carboxymethylcellulose (CMC) 102 % of control | dose: 6.0 mg/kg/injection, schedule: Q01DX001 (ip), vehicle: carboxymethylcellulose (CMC) 100 % of control | dose: 12.0 mg/kg/injection, schedule: Q01DX001 (ip), vehicle: carboxymethylcellulose (CMC) 107 % of control | dose: 25.0 mg/kg/injection, schedule: Q01DX001 (ip), vehicle: carboxymethylcellulose (CMC) 95 % of control

CCOC(=O)c1cnc[nH]c1=O
inactive: [6] 100 % of control | [7] 100 % of control | [8] 87 % of control

CC1=NN(c2ccccc2)C(=O)C1N=Nc1ccc(S(=O)(=O)Nc2occ(C)c2C)cc1 (stereo unspecified)
inactive: [9] 90 % of control | [10] 90 % of control | [11] 93 % of control

O=C(Cc1ccccc1)Nc1cccc2ccccc12
inactive: [12] 101 % of control | [13] 95 % of control | [14] 91 % of control

O=C(O)C(F)(F)C(F)(Cl)C(F)(F)C(F)(Cl)C(F)(F)C(F)(Cl)C(F)(F)Cl (stereo unspecified) (tested in a mixture with another compound)
inactive: [15] 90 % of control | [16] 101 % of control | [17] 101 % of control

COc1ccc2nc3cc(Cl)ccc3c(NCC3(c4ccccc4)CCN(C)CC3)c2c1
inactive: dose: 12.5 mg/kg/injection, schedule: Q04DX003 (ip), vehicle: saline 97 % of control | dose: 25.0 mg/kg/injection, schedule: Q04DX003 (ip), vehicle: saline 90 % of control

N#CCCCSC(=N)N
inactive: [2] 106 % of control | [4] 104 % of control

CN1c2ccccc2NP1(=S)c1ccccc1 (stereo unspecified)
inactive: dose: 100.0 mg/kg/injection, schedule: Q04DX002 (ip), vehicle: saline with Tween-80 90 % of control | dose: 200.0 mg/kg/injection, schedule: Q04DX002 (ip), vehicle: saline with Tween-80 90 % of control | dose: 400.0 mg/kg/injection, schedule: Q04DX002 (ip), vehicle: saline with Tween-80 87 % of control

COc1ccccc1OCCOCCN(C/C=C(\C)CCC=C(C)C)C/C=C(\C)CCC=C(C)C
inactive: dose: 50.0 mg/kg/injection, schedule: Q01DX009 (ip), vehicle: saline 100 % of control | [18] 96 % of control | [6] 102 % of control | [7] 98 % of control

CC(C)(CCCl)N(Cc1ccccc1)Cc1ccccc1
inactive: [18] 93 % of control | [15] 99 % of control | [19] 90 % of control | [16] 95 % of control | [17] 89 % of control

CCCCC(C(C)=O)C(C)C (stereo unspecified)
inactive: [12] 94 % of control | [6] 100 % of control | [13] 91 % of control | [7] 96 % of control | [14] 95 % of control | [8] 92 % of control

CC(C)c1ccc(/C=C(\C(=O)O)c2cccc3ccccc23)cc1
inactive: [12] 101 % of control

O=C(O)c1ccc(C(=O)O)c([N+](=O)[O-])c1
inactive: [15] 102 % of control | [16] 100 % of control | [17] 96 % of control

CNC(=O)CCC(NS(=O)(=O)c1ccc(C)cc1)C(=O)OC (stereo unspecified)
inactive: dose: 100.0 mg/kg/injection, schedule: Q01DX001 (ip), vehicle: saline with Tween-80 100 % of control | dose: 200.0 mg/kg/injection, schedule: Q01DX001 (ip), vehicle: saline with Tween-80 94 % of control | dose: 400.0 mg/kg/injection, schedule: Q01DX001 (ip), vehicle: saline with Tween-80 97 % of control

CCOC(=O)c1c(C)c2c(n1C)CCC(CCC(C)=O)C2=O (stereo unspecified)
inactive: [9] 104 % of control | [10] 97 % of control | [11] 93 % of control

NC(=O)c1cccn1-c1cccc2c(-n3cccc3C(N)=O)cccc12
inactive: dose: 50.0 mg/kg/injection, schedule: Q04DX002 (ip), vehicle: saline with Tween-80 89 % of control

OCC1(CO)COC2(CCCCC2)OC1
inactive: [6] 89 % of control | [7] 91 % of control | [8] 91 % of control

COc1cc2c(cc1OC)C1CCc3cc4c(cc3C1N=C2)OCO4 (stereo unspecified)
inactive: dose: 80.0 mg/kg/injection, schedule: Q01DX009 (ip), vehicle: saline 96 % of control | dose: 120.0 mg/kg/injection, schedule: Q01DX009 (ip), vehicle: saline 98 % of control | dose: 240.0 mg/kg/injection, schedule: Q01DX009 (ip), vehicle: saline 98 % of control | [20] 91 % of control

CCCCCC#CCCCCl
inactive: dose: 50.0 mg/kg/injection, schedule: Q01DX001 (ip), vehicle: carboxymethylcellulose (CMC) 101 % of control | dose: 50.0 mg/kg/injection, schedule: Q01DX009 (ip), vehicle: carboxymethylcellulose (CMC) 95 % of control and 97 % of control | dose: 50.0 mg/kg/injection, schedule: Q04DX003 (ip), vehicle: carboxymethylcellulose (CMC) 98 % of control | [9] 96 % of control | dose: 100.0 mg/kg/injection, schedule: Q01DX009 (ip), vehicle: carboxymethylcellulose (CMC) 93 % of control and 95 % of control | dose: 100.0 mg/kg/injection, schedule: Q04DX002 (ip), vehicle: carboxymethylcellulose (CMC) 95 % of control and 97 % of control | dose: 100.0 mg/kg/injection, schedule: Q04DX003 (ip), vehicle: carboxymethylcellulose (CMC) 102 % of control | [10] 91 % of control | dose: 200.0 mg/kg/injection, schedule: Q01DX009 (ip), vehicle: carboxymethylcellulose (CMC) 95 % of control | dose: 200.0 mg/kg/injection, schedule: Q04DX002 (ip), vehicle: carboxymethylcellulose (CMC) 100 % of control and 107 % of control | dose: 200.0 mg/kg/injection, schedule: Q04DX003 (ip), vehicle: carboxymethylcellulose (CMC) 94 % of control

CC(C)=C1C(=O)ON(c2ccccc2)C1=O
inactive: dose: 50.0 mg/kg/injection, schedule: Q01DX001 (ip), vehicle: Klucel (hydroxypropylcellulose) (HPC) 100 % of control | [1] 100 % of control | [6] 105 % of control | [3] 105 % of control | [7] 110 % of control | [5] 104 % of control | [8] 105 % of control

CC12CCC(C(C(=O)C3C(=O)C4(C)CCC3C4(C)C)C1=O)C2(C)C (stereo unspecified)
inactive: [1] 102 % of control | [3] 103 % of control | [5] 113 % of control

CCc1nc(C#N)c(N)o1
inactive: dose: 5.0 mg/kg/injection, schedule: Q01DX001 (ip), vehicle: saline 98 % of control | dose: 10.0 mg/kg/injection, schedule: Q01DX001 (ip), vehicle: saline 103 % of control | dose: 20.0 mg/kg/injection, schedule: Q01DX001 (ip), vehicle: saline 97 % of control | dose: 40.0 mg/kg/injection, schedule: Q01DX001 (ip), vehicle: saline 95 % of control | dose: 80.0 mg/kg/injection, schedule: Q01DX001 (ip), vehicle: saline 98 % of control

O=c1cc(CO)[nH]nc1CO
inactive: [18] 97 % of control | [15] 101 % of control | [19] 97 % of control | [16] 106 % of control | [20] 97 % of control | [17] 103 % of control

O=[N+]([O-])c1csc2ccccc12
inactive: dose: 12.5 mg/kg/injection, schedule: Q01DX009 (ip), vehicle: Klucel (hydroxypropylcellulose) (HPC) 97 % of control | dose: 25.0 mg/kg/injection, schedule: Q01DX009 (ip), vehicle: Klucel (hydroxypropylcellulose) (HPC) 90 % of control | dose: 50.0 mg/kg/injection, schedule: Q01DX009 (ip), vehicle: Klucel (hydroxypropylcellulose) (HPC) 90 % of control | [12] 105 % of control
